What was measured:
adjuvant arthritis rats [1] = assay: Suppression of adjuvant arthritis, Example 5 (left hind leg volume, water displacement); assay type: in vivo, Lewis rats; conditions: average of 4 rats
Protocol: (§1) Fifty microliters of an incomplete Freund's adjuvant solution (DIFCO) containing 6 mg/mL of M. Butyricum Dessicated (DIFCO) was subcutaneously injected into the left hind paw of 7-week-old Lewis rats, weighing 130 to 160 g, under anesthesia with ether. The animals were divided into groups so that there is no significant difference in the volume of the left hind leg between the groups. 14 days after administration of M. Butyricum, one group was intravenously administered a single dose of the nanoparticles of the present invention encapsulating betamethasone phosphate (equivalent to 50 μg betamethasone). As controls, other groups were intravenously administered the same amount of an aqueous betamethasone phosphate solution or the PLA nanoparticles encapsulating betamethasone phosphate (nanoparticles described in Example 2 of International Patent Publication No. WO 2004/84871), each administered in a single dose.
(§2) The ability of the nanoparticles to suppress arthritic inflammation was analyzed by the water displacement technique by measuring the volume of the left hind legs before and after the administration of the nanoparticles.
(§3) Inflammation rate shown in Table 6 was determined with respect to the leg volume of the control group (=100) and calculated by the following equation: Inflammation rate(%)=(measured leg volume−leg volume without adjuvant)/(initial leg volume−leg volume without adjuvant)×100
Each inflammation rate is the average of 4 rats.

adjuvant arthritis rats [2] = assay: Suppression of adjuvant arthritis, Example 9 (left hind leg volume, water displacement); assay type: in vivo, Lewis rats; conditions: average of 7 rats
Protocol: as §1, §2, §3
As in Example 5, the ability of nanoparticles to suppress adjuvant arthritis was evaluated. Each inflammation rate is the average of 7 rats. Nanoparticles of the present invention containing betamethasone phosphate equivalent to 40 μg betamethasone were intravenously administered in a single dose.
As a control, another group of rats was intravenously administered the same amount of an aqueous solution of betamethasone phosphate in a single dose.

Work on `C[C@H]1C[C@H]2[C@@H]3CCC4=CC(=O)C=C[C@]4(C)[C@@]3(F)[C@@H](O)C[C@]2(C)[C@@]1(O)C(=O)COP(=O)(O)O` [betamethasone phosphate] yielded an Inflammation rate (adjuvant arthritis rats [1]; 1 day after single i.v. dose equivalent to 50 μg betamethasone) of 83%, an Inflammation rate (adjuvant arthritis rats [1]; 2 days after single i.v. dose equivalent to 50 μg betamethasone) of 80% and an Inflammation rate (adjuvant arthritis rats [1]; 3 days after single i.v. dose equivalent to 50 μg betamethasone) of 82%. It also gave an Inflammation rate (adjuvant arthritis rats [1]; 4 days after single i.v. dose equivalent to 50 μg betamethasone) of 83%, an Inflammation rate (adjuvant arthritis rats [1]; 6 days after single i.v. dose equivalent to 50 μg betamethasone) of 84% and an Inflammation rate (adjuvant arthritis rats [1]; 8 days after single i.v. dose equivalent to 50 μg betamethasone) of 81%. The Inflammation rate (adjuvant arthritis rats [2]; 1 day after single i.v. dose equivalent to 40 μg betamethasone) was 81%, the Inflammation rate (adjuvant arthritis rats [2]; 2 days after single i.v. dose equivalent to 40 μg betamethasone) was 83% and the Inflammation rate (adjuvant arthritis rats [2]; 3 days after single i.v. dose equivalent to 40 μg betamethasone) was 83%. The Inflammation rate (adjuvant arthritis rats [2]; 4 days after single i.v. dose equivalent to 40 μg betamethasone) was 78%, the Inflammation rate (adjuvant arthritis rats [2]; 5 days after single i.v. dose equivalent to 40 μg betamethasone) was 78% and the Inflammation rate (adjuvant arthritis rats [2]; 7 days after single i.v. dose equivalent to 40 μg betamethasone) was 79%. It also gave an Inflammation rate (adjuvant arthritis rats [2]; 9 days after single i.v. dose equivalent to 40 μg betamethasone) of 79%.
